Laboratory results published in patent US20100120798A1, “SUBSTITUTED PIPERIDINES CONTAINING A HETEROARYLAMIDE OR HETEROARYLPHENYL MOIETY” (ASTEX THERAPEUTICS LIMITED, priority 2006, published 2010).

Assays:
[1] = In vitro MDA-MB-468 human breast adenocarcinoma GSK-3 phosphorylation assay; type: cell-based; conditions: mean IC50, MDA-MB-468 cells, 2 hours with compound, phospho-GSK-3β
Text: This assay determines the ability of test compounds to inhibit phosphorylation of Serine-9 residue in Glycogen Synthase Kinase-3beta (GSK-3β) as a surrogate marker of cellular PKB (Akt) activity, as assessed using Acumen Explorer Fluorescent Plate-Reader technology. A MDA-MB-468 human breast adenocarcinoma cell line (LGC Promochem, Teddington, Middlesex, UK, Catalogue No. HTB-132) was routinely maintained in Dulbecco's modified Eagle's growth medium (DMEM; Invitrogen Limited, Paisley, UK Catalogue No. 11966-025) containing 10% heat-inactivated foetal calf serum (FCS; Sigma, Poole, Dorset, UK, Catalogue No. F0392) and 1% L-glutamine (Gibco, Catalogue No. 25030-024) at 37° C. with 5% CO2 up to a confluency of 70-90%.
For the phosphorylation assay, the cells were detached from the culture flask using Trypsin-EDTA (Invitrogen Limited, Catalogue No. 25300-062) and seeded into the wells of a black transparent-bottom Corning Costar Polystyrene 96 well plate (Fisher Scientific UK, Loughborough, Leicestershire, UK; Catalogue No. 3904 and DPS-130-020K) at a density of 5000 cells per well in 100 μl of complete growth media. The cells were incubated overnight at 37° C. with 5% CO2 to allow them to adhere.
On day 2, the cells were treated with test compounds and incubated for 2 hours at 37° C. with 5% CO2. Test compounds were prepared as 10 mM stock solutions in DMSO and dosed directly to required concentration into test wells using non-contact (acoustic dispensing of multiple 2.5 nl droplets directly into assay wells) ECHO dosing technology (Labcyte Inc. Sunnyvale, Calif., USA). Each plate contained control wells without test compound.
20 μl of fixing buffer (Phosphate Buffered Saline (PBS) containing 10% formaldehyde; Sigma; Catalogue No. F1635) was then added to each well to give a final well concentration 1.6%. Plates were then incubated for 30 minutes at room temperature prior to the fixative being removed. Each well was washed once with 250 μl of PBS and then 50 μl PBS added to each well. PBS was then aspirated and cells permeabilised and blocked by incubating each well with 50 μl of permeabilisation/blocking buffer (PBS containing 0.5% Tween 20 (Sigma; Catalogue No. P5927) and 5% Marvel Milk Powder (Andrews Pharmacy Ltd, Macclesfield, Cheshire, UK; Catalogue No. APC100199)) for 1 hour at room temperature prior to staining.
Following removal of Perm/Block buffer, 50 μl of primary anti-phospho-GSK-3β antibody (Cell Signalling Technology (New England Biolabs (Uk) Ltd.), Hitchin, Hertfordshire, UK; Catalogue No. 9336 diluted 1:400 in Blocking buffer (PBS containing 5% Marvel and 0.05% Tween/Polysorbate 20) was added to each well and incubated overnight at 4° C.
Each well was washed three times in 250 μl of wash buffer (PBS containing 0.05% polysorbate 20), and cells incubated for 1 hour at room temperature with 50 μl of secondary fluorescently-labelled anti-rabbit Alexa Fluor 488 antibody (Molecular Probes, Invitrogen Limited, Catalogue No. A11008) diluted 1:750 in blocking buffer. Plates were washed three times in 250 μl of wash buffer and stored containing 50 μl of PBS at 4° C. until required.
Plates were analysed using an Acumen Explorer Plate-reader to quantify level of fluorescent signal that represents quantity of phosphorylated-GSK-3β.
IC50 calculation—IC50 is the concentration of compound required to give 50% effect over the range of activity affected by the compound, between maximum (no compound) and minimum (excess level of compound) response control data. IC50 values were determined by fitting background corrected, dose response assay data to a 4 parameter logistic curve fit equation model with the minimum response set to zero. This was done using an in-house developed algorithm within the Origin graphing software package (OriginLab Corporation, Northampton, Mass., USA). […]

[2] = biological target: hERG K+ ion channel (Homo sapiens, UniProt Q12809); experiment: hERG activity; type: cell-based; conditions: assay of Bridgland-Taylor et al.; read-out: IC50 against hERG K+ ion channel
Text: The activity of compounds of the invention against the hERG K^+ ion channel can be determined using the assay described in the article by M. H. Bridgland-Taylor et al., Journal of Pharmcaological and Toxicological Methods, 54 (2006), 189-199.

hERG K+ ion channel, sequence (Q12809 whole entry): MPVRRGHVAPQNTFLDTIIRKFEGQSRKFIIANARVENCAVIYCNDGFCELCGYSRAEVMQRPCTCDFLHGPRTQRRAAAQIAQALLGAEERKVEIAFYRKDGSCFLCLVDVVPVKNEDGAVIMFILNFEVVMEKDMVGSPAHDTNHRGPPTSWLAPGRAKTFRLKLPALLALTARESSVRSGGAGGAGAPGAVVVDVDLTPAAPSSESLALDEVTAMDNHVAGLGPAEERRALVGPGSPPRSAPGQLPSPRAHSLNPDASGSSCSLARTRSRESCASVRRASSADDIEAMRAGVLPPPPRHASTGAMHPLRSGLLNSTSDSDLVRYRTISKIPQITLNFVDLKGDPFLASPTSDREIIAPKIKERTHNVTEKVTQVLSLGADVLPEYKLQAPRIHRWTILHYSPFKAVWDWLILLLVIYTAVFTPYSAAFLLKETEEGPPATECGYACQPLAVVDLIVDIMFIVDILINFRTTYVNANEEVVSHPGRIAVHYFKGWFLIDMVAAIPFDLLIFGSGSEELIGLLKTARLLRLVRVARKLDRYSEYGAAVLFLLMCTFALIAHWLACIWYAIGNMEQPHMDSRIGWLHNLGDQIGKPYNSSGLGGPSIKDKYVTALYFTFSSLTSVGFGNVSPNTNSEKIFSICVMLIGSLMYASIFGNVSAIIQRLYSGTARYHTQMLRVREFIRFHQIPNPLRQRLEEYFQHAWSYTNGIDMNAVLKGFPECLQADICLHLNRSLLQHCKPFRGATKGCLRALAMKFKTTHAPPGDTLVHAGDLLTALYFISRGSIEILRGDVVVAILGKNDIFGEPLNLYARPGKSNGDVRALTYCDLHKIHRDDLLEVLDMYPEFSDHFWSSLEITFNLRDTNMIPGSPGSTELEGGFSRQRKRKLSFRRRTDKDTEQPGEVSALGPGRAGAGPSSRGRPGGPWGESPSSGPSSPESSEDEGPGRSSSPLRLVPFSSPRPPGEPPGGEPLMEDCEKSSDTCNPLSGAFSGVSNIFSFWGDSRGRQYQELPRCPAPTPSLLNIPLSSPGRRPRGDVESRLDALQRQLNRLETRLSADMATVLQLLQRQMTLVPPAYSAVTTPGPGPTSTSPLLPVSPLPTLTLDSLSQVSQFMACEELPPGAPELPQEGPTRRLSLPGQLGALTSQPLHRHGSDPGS

SMILES | IC50 [1] | IC50 [2]
NCC1(C(=O)NCc2ccc(Cl)nc2)CCN(c2ncnc3[nH]ccc23)CC1 [Example 1, 4-Aminomethyl-1-(7H-pyrrolo[2,3-d]pyrimidin-4-yl)-piperidine-4-carboxylic acid (6-chloro-pyridin-3-ylmethyl)-amide] | 59 nM | > 32000 nM
NC1(C(=O)NCc2ccc(Cl)nc2)CCN(c2ncnc3[nH]ccc23)CC1 [Example 4, 4-Amino-1-(7H-pyrrolo[2,3-d]pyrimidin-4-yl)-piperidine-4-carboxylic acid (6-chloro-pyridin-3-ylmethyl)amide] | 880 nM | > 32000 nM
Cn1cc(-c2cccc(C3(CN)CCN(c4ncnc5[nH]cnc45)CC3)c2)cn1 [Example 6, C-[4-[3-(1-Methyl-1H-pyrazol-4-yl)-phenyl]-1-(9H-purin-6-yl)-piperidin-4-yl]-methylamine] | 31 nM | > 32000 nM
